Source: patent US11083707B2, “Substituted indoline derivatives as dengue viral replication inhibitors” (JANSSEN PHARMACEUTICALS, INC., priority 2017, dated 2021)

Tests used:
Vero cells = conditions: African green monkey
DENV-2 16681 strain = assay: DENV-2 antiviral assay (eGFP fluorescence, Vero cells); format: cell-based, Dengue virus; conditions: DENV-2 16681 eGFP, MOI 0.5, 3 days
Description: The antiviral activity of all the compounds of the invention was tested against the DENV-2 16681 strain which was labeled with enhanced green fluorescent protein (eGPF). The culture medium consists of minimal essential medium supplemented with 2% of heat-inactivated fetal calf serum, 0.04% gentamycin (50 mg/mL) and 2 mM of L-glutamine. Vero cells, obtained from ECACC, were suspended in culture medium and 25 μL was added to 384-well plates (2500 cells/well), which already contain the antiviral compounds. Typically, these plates contain a 5-fold serial dilution of 9 dilution steps of the test compound at 200 times the final concentration in 100% DMSO (200 nL). […] Finally, each plate contains wells which are assigned as virus controls (containing cells and virus in the absence of compound), cell controls (containing cells in the absence of virus and compound) and medium controls (containing medium in the absence of cells, virus and compounds). To the wells assigned as medium control, 25 μL of culture medium was added instead of Vero cells. Once the cells were added to the plates, the plates were incubated for 30 minutes at room temperature to allow the cells to distribute evenly within the wells. Next, the plates were incubated in a fully humidified incubator (37° C., 5% CO2) until the next day. Then, DENV-2 strain 16681, labeled with eGFP, was added at a multiplicity of infection (MOI) of 0.5. Therefore, 15 μL of virus suspension was added to all the wells containing test compound and to the wells assigned as virus control. In parallel, 15 μL of culture medium was added to the medium and cell controls. Next, the plates were incubated for 3 days in a fully humidified incubator (37° C., 5% CO2). At the day of the read out, the eGFP fluorescence was measured using an automated fluorescence microscope at 488 nm (blue laser). Using an in-house LIMS system, inhibition dose response curves for each compound were calculated and the half maximal effective concentration (EC50) was determined. Therefore, the percent inhibition (I) for every test concentration is calculated using the following formula: I=100*(ST-SCC)/(SVC-SCC), ST, SCC and SVC are the amount of eGFP signal in the test compound, cell control and virus control wells, respectively. The EC50 represents the concentration of a compound at which the virus replication is inhibited with 50%, as measured by a 50% reduction of the eGFP fluorescent intensity compared to the virus control. The EC50 is calculated using linear interpolation (Table 1).

in vitro = conditions: African green monkey
[1] = Dengue virus, DENV2, Vero, 72 h

SMILES	CC50 (Vero cells)	EC50 (DENV-2 16681 strain)	CC50 (in vitro)	EC50 (DENV-2 16681 strain; [1])
COc1cc(NC(C(=O)N2CCc3cc(OC)c(C(F)(F)F)cc32)c2ccc(Cl)cc2OCCCC(=O)O)cc(-n2cncn2)c1 (single isomer, unassigned) [Compound 12B]	12000 nM	320 nM	–	–
COc1cc(NC(C(=O)N2CCc3cc(F)c(OC(F)(F)F)cc32)c2ccc(Cl)cc2OCCO)cc(-n2cncn2)c1 (single isomer, unassigned) [Compound 9A]	4200 nM	250 nM	–	–
COc1cc(NC(C(=O)N2CCc3ccc(OC(F)(F)F)cc32)c2ccc(Cl)cc2OCCCC(=O)O)cc(-n2cncn2)c1 (single isomer, unassigned) [Compound 13B]	12000 nM	12 nM	–	–
COc1cc(NC(C(=O)N2CCc3ccc(OC(F)(F)F)cc32)c2ccc(Cl)cc2OCCO)cc(-n2cncn2)c1 (single isomer, unassigned) [Compound 6B]	7300 nM	92 nM	–	–
COc1cc(NC(C(=O)N2CCc3ccc(OC(F)(F)F)cc32)c2ccc(F)cc2OCCO)cc(-n2cncn2)c1 (racemic) [Compound 3, 2-(4-fluoro-2-(2-hydroxyethoxy)phenyl)-2-((3-methoxy-5-(1H-1,2,4-triazol-1-yl)phenyl)amino)-1-(6-(trifluoromethoxy)indolin-1-yl)ethanone]	–	–	8500 nM	1.9 nM
COc1cc(NC(C(=O)N2CCc3c(C)cc(OC(F)(F)F)cc32)c2ccc(Cl)cc2OCCCC(=O)O)cc(-n2cncn2)c1 (single isomer, unassigned) [Compound 16A]	–	14 nM	11000 nM	–
COc1cc(NC(C(=O)N2CCc3ccc(OC(F)(F)F)cc32)c2ccc(Cl)cc2OCCO)cc(-n2cncn2)c1 (racemic) [Compound 6, 2-(4-chloro-2-(2-hydroxyethoxy)phenyl)-2-((3-methoxy-5-(1H-1,2,4-triazol-1-yl)phenyl)amino)-1-(6-(trifluoromethoxy)indolin-1-yl)ethanone]	–	–	3300 nM	0.97 nM
COc1cc(NC(C(=O)N2CCc3cc(F)c(C(F)(F)F)cc32)c2ccc(Cl)cc2OCCO)cc(-n2cncn2)c1 (single isomer, unassigned) [Compound 7A]	–	430 nM	11000 nM	–
COc1cc(NC(C(=O)N2CCc3ccc(C(F)(F)F)cc32)c2ccc(Cl)cc2OCCCC(=O)O)cc(-n2cncn2)c1 (racemic) [Compound 11, 4-(5-chloro-2-(1-((3-methoxy-5-(1H-1,2,4-triazol-1-yl)phenyl)amino)-2-oxo-2-(6-(trifluoromethyl)indolin-1-yl)ethyl)phenoxy)butanoic acid]	–	–	15000 nM	0.31 nM
COc1cc(NC(C(=O)N2CCc3cc(OC)c(C(F)(F)F)cc32)c2ccc(Cl)cc2OCCO)cc(-n2cncn2)c1 (racemic) [Compound 5, 2-(4-chloro-2-(2-hydroxyethoxy)phenyl)-2-((3-methoxy-5-(1H-1,2,4-triazol-1-yl)phenyl)amino)-1-(5-methoxy-6-(trifluoromethyl)indolin-1-yl)ethanone]	–	–	11000 nM	0.82 nM
COc1cc(NC(C(=O)N2CCc3cc(OC)c(OC(F)(F)F)cc32)c2ccc(Cl)cc2OCCO)cc(-n2cncn2)c1 (single isomer, unassigned) [Compound 8B]	12000 nM	250 nM	–	–
COc1cc(NC(C(=O)N2CCc3ccc(C(F)(F)F)cc32)c2ccc(F)cc2OCCO)cc(-n2cncn2)c1 (single isomer, unassigned) [Compound 1A]	–	1000 nM	7700 nM	–
COc1cc(NC(C(=O)N2CCc3cc(F)c(C(F)(F)F)cc32)c2ccc(Cl)cc2OCCO)cc(-n2cncn2)c1 (racemic) [Compound 7, 2-(4-chloro-2-(2-hydroxyethoxy)phenyl)-1-(5-fluoro-6-(trifluoromethyl)indolin-1-yl)-2-((3-methoxy-5-(1H-1,2,4-triazol-1-yl)phenyl)amino)ethanone]	–	–	10000 nM	3 nM
COc1cc(NC(C(=O)N2CCc3ccc(OC(F)(F)F)cc32)c2ccc(Cl)cc2OCCC(C)(C)C(=O)O)cc(-n2cncn2)c1 (racemic) [Compound 14, 4-(5-chloro-2-(1-((3-methoxy-5-(1H-1,2,4-triazol-1-yl)phenyl)amino)-2-oxo-2-(6-(trifluoromethoxy)indolin-1-yl)ethyl)phenoxy)-2,2-dimethylbutanoic acid]	–	–	10000 nM	0.41 nM
COc1cc(NC(C(=O)N2CCc3cc(F)c(OC(F)(F)F)cc32)c2ccc(Cl)cc2OCCCC(=O)O)cc(-n2cncn2)c1 (racemic) [Compound 15, 4-(5-chloro-2-(2-(5-fluoro-6-(trifluoromethoxy)indolin-1-yl)-1-((3-methoxy-5-(1H-1,2,4-triazol-1-yl)phenyl)amino)-2-oxoethyl)phenoxy)butanoic acid]	–	–	11000 nM	0.22 nM
COc1cc(NC(C(=O)N2CCc3cc(OC)c(C(F)(F)F)cc32)c2ccc(F)cc2OCCO)cc(-n2cncn2)c1 (racemic) [Compound 2, 2-(4-fluoro-2-(2-hydroxyethoxy)phenyl)-2-((3-methoxy-5-(1H-1,2,4-triazol-1-yl)phenyl)amino)-1-(5-methoxy-6-(trifluoromethyl)indolin-1-yl)ethanone]	–	–	13000 nM	2.8 nM
COc1cc(NC(C(=O)N2CCc3cc(OC)c(C(F)(F)F)cc32)c2ccc(Cl)cc2OCCO)cc(-n2cncn2)c1 (single isomer, unassigned) [Compound 5A]	–	42 nM	11000 nM	–
COc1cc(NC(C(=O)N2CCc3cc(OC)c(C(F)(F)F)cc32)c2ccc(F)cc2OCCO)cc(-n2cncn2)c1 (single isomer, unassigned) [Compound 2A]	–	270 nM	12000 nM	–
